Source: patent publication US11065232B2, “Dihydrotetrabenazine for the treatment of anxiety and psychoses” (ADEPTIO PHARMACEUTICALS LIMITED, priority 2017, dated 2021)

Experiments:
[1] = biological target: T1, alpha 2C (h) (antagonist radioligand) (Homo sapiens, UniProt P18825); assay: Receptor protein binding studies, alpha 2C
T1 sequence (P18825 1-462): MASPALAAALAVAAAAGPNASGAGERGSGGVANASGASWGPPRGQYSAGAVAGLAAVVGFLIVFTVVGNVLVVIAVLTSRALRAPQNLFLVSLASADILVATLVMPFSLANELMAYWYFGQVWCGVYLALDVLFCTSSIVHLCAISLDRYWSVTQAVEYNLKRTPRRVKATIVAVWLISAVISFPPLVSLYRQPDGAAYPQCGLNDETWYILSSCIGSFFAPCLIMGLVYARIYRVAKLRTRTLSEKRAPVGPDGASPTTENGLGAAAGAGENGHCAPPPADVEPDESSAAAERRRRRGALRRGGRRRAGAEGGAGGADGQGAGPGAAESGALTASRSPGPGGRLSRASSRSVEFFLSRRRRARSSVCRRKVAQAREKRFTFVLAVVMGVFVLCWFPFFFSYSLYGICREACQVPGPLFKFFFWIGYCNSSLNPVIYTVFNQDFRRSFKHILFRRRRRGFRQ
Excerpt: (§1) The four 3,11b trans-dihydrotetrabenazine isomers (+)-α, (−)-α, (+)-β and (−)-β were subjected to specific binding assays to test their ability to bind to the receptors and transporter proteins described below. The results are set out in Table 1

[2] = biological target: hERG (membrane preparation) (antagonist radioligand) (Homo sapiens, UniProt Q12809); assay: Receptor protein binding studies, hERG
hERG (membrane preparation) (antagonist radioligand), sequence (Q12809 whole entry): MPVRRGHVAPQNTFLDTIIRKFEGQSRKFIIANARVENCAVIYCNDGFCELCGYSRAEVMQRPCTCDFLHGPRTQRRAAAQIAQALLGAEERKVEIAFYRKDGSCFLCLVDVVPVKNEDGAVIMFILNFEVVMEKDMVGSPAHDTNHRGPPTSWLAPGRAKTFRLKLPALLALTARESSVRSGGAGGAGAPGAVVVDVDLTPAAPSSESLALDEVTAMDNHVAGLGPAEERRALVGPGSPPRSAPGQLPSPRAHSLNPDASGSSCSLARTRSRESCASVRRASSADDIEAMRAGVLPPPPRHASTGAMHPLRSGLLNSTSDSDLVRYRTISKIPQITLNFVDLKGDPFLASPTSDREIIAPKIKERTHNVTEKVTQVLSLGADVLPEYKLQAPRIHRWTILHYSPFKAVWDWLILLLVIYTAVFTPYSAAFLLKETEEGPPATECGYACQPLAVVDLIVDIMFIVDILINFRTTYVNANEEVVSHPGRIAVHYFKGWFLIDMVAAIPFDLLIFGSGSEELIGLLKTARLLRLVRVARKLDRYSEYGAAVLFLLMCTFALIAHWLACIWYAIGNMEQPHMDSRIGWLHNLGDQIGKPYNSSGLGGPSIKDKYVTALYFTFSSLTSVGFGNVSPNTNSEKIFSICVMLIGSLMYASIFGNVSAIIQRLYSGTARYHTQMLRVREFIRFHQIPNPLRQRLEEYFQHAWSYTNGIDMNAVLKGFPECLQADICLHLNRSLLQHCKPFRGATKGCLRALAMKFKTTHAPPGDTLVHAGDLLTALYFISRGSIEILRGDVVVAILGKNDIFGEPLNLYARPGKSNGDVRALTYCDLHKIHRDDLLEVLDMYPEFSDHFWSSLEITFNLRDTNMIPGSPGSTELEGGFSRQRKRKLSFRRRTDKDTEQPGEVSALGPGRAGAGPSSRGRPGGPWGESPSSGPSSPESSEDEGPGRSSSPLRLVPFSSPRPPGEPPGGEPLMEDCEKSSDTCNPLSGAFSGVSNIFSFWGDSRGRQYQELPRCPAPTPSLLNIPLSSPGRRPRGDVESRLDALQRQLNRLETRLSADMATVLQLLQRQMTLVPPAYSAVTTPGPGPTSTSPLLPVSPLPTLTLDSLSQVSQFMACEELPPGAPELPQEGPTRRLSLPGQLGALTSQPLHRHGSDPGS
Excerpt: as §1

[3] = test system: I2 (antagonist radioligand); assay: Receptor protein binding studies, I2
Excerpt: as §1

[4] = biological target: T2, 5-HT1A(h) (agonist radioligand) (Homo sapiens, UniProt P08908); assay: Receptor protein binding studies, 5-HT1A
T2 sequence (P08908 1-422): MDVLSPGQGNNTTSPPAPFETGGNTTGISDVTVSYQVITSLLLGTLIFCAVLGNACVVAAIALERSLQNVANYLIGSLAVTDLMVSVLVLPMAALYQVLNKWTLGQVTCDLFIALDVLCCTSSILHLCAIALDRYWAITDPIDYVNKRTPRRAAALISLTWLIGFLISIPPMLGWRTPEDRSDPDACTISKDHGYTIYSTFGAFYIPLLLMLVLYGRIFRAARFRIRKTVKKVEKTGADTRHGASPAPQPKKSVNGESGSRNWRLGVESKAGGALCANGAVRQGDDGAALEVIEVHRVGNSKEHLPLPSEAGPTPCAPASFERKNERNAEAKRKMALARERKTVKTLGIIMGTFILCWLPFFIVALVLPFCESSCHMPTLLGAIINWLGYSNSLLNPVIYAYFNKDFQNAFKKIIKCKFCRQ
Excerpt: as §1

[5] = biological target: T3, alpha 2A (h) (antagonist radioligand) (Homo sapiens, UniProt P08913); assay: Receptor protein binding studies, alpha 2A
T3 sequence (P08913 1-465): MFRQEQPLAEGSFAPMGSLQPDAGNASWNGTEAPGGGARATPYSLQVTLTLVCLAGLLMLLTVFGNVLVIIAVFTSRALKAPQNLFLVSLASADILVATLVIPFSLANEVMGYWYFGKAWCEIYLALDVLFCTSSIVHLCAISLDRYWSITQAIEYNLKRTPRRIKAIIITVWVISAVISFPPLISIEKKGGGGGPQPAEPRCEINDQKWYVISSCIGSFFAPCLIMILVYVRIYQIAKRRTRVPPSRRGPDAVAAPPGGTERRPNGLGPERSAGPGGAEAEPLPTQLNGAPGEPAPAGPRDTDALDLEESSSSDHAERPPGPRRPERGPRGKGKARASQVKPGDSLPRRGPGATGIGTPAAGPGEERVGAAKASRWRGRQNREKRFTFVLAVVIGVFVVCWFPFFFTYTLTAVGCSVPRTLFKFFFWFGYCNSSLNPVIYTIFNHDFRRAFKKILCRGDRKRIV
Excerpt: as §1

[6] = biological target: T4, D4.4 (h) (antagonist radioligand) (Homo sapiens, UniProt P21917); assay: Receptor protein binding studies, D4.4; details: read-out: % Inhibition of specific binding
T4 sequence (P21917 1-419): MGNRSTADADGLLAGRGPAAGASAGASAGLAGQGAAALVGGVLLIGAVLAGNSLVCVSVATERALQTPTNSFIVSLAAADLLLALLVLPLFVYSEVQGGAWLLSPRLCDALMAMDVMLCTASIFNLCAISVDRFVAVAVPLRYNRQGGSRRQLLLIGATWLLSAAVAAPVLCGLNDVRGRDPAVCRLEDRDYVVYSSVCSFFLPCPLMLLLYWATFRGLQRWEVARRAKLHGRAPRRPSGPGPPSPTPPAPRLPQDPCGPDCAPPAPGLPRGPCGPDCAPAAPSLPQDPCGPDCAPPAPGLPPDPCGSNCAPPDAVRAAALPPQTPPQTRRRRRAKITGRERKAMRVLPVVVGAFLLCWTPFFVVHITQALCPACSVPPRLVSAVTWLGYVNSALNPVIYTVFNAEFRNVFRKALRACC
Excerpt: as §1

[7] = biological target: 5-HT2B (h) (agonist radioligand) (Homo sapiens, UniProt P41595); assay: Receptor protein binding studies, 5-HT2B
5-HT2B (h) (agonist radioligand), sequence (P41595 whole entry): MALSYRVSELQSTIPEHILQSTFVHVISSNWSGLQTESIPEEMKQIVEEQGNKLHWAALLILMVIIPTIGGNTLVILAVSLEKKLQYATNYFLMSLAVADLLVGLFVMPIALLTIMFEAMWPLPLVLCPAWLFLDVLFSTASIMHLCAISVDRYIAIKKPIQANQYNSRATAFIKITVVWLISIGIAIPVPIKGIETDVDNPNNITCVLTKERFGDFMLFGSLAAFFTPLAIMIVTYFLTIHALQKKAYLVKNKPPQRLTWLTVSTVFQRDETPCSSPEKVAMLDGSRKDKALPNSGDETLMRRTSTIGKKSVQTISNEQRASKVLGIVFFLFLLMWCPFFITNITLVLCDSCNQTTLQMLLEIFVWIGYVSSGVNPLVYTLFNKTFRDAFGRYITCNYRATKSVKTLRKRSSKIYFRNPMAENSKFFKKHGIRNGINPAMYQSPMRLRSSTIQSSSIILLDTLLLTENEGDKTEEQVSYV
Excerpt: as §1

`COc1cc2c(cc1OC)[C@@H]1C[C@@H](O)[C@@H](CC(C)C)CN1CC2` [(−)-Beta, (2S,3R,11bR)-3-isobutyl-9,10-dimethoxy-1,3,4,6,7,11b-hexahydro-2H-pyrido[2,1,a]isoquinolin-2-ol] was tested, and the “activity at the alpha 2C receptor (in words)” value [1] was “potent antagonists”, the “% Inhibition of specific binding” value ([2]; CONC 1.0E−05 (unit not given)) was 64% and the “% Inhibition of specific binding” value ([2]; CONC 1.0E−06 (unit not given)) was −1%. For the same compound, the “% Inhibition of specific binding” value ([3]; CONC 1.0E−05 (unit not given)) was 37%, the “% Inhibition of specific binding” value ([3]; CONC 1.0E−06 (unit not given)) was 11% and the “activity at the 5-HT 1A receptor (in words)” value [4] was “potent agonists”. For the same compound, the “activity at the alpha 2A receptor (in words)” value [5] was “potent antagonists”, the inhibition at 10 µM ([6]; CONC 1.0E−05 (unit inferred), 10 μM) was 99% and the inhibition at 1 µM ([6]; CONC 1.0E−06 (unit inferred), 1 μM) was 87%. The “activity at the 5-HT 2B receptor (in words)” value [7] was “potent agonists”.
